Read-outs that look alike come from different tables or passages of the source. Where a SMILES comes first, the peptide text is derived from it.
Assays:
U87-MG cells [1] = assay: LIF production into conditioned media (ELISA), U87-MG; type: cell-based, human
STAT3 in SK-N-MC cells [2] = assay: STAT3 Tyr705 phosphorylation in SK-N-MC by conditioned media from agonist-treated U87-MG; type: cell-based, human
Description: (§1) These conditioned media were either immediately applied to SK-N-SH/SK-N-MC cells (80–100% confluence) in 6-well plates for 15 min, or subjected to heat treatment on a 96 °C heat block for 5 min, and then cooled to 37 °C before they were applied to the SK-N-SH/SK-N-MC cells for 15 min. […] For the SK-N-MC-derived conditioned media, SK-N-MC cells (80–100% confluence) in a 10 cm culture dish were serum-starved in 10 mL of MEM (without FBS), with 1 mL of the resulting conditioned medium being collected at indicated time points (15 min, 1 h, 3 h, 6 h). Simultaneously, U87-MG cells (80–100% confluence) in 12-well plates were serum-starved in MEM for 6 h, followed by pretreatment of […] (5 μM, 15 min), and then challenged with the SK-N-MC-derived conditioned media (mentioned above) for 10 min before cell lysis. […]
(§2) SDS-PAGE and Western blotting were performed as described in our previous studies. […] The amount of protein in each sample was determined by detergent compatible (DC) protein assay according to the supplier’s instruction (Bio-Rad, Hercules, CA, USA). […] Resolved proteins were detected by specific primary antibodies and horseradish peroxidase-conjugated secondary antisera. The level of β-actin was determined as an internal control.

ERK in SK-N-SH cells = type: cell-based, human
Description: as §1, §2

ERK in SK-N-MC cells = type: cell-based, human
Description: as §1, §2

1321-N1 cells = assay: Intracellular Ca2+ mobilization by Gq-coupled receptor agonists (FLIPR, Fluo-4), 1321-N1; type: cell-based, human
Description: (§3) Cells were seeded in 96-well plates (clear bottom and black wall) at 2.5 × 10^4 cells per well on the day before assay. The cells (~80–100% confluence) were then washed with Hank’s balanced salt solution (HBSS) and aspirated, followed by addition of 100 μL of FLIPR labeling dye (containing Fluo-4 and probenecid in HBSS) to each well before incubation at 37 °C for 1 h. Finally, the 96-well plate containing the labeled cells was transferred to the FLIPR (Molecular Devices, San Jose, CA, USA), and 50 μL of HBSS (with or without agonists) was added to each well. The fluorescent signals that reflect the intracellular Ca^2+ transients were monitored by an excitation wavelength of 488 nm, and detection was undertaken with an emission wavelength from 510 to 570 nm for 3 min upon the drug treatments, as described previously.

U87-MG cells [3] = assay: Intracellular Ca2+ mobilization by Gq-coupled receptor agonists (FLIPR, Fluo-4), U87-MG; type: cell-based, human
Description: as §3

primary astrocytes [4] = assay: LIF secretion (ELISA), primary astrocytes; type: cell-based, mouse
Description: HEK293, U87-MG, 1321N1, SK-N-SH, and SK-N-MC cells were cultured in MEM supplemented with 10% (vol/vol) fetal bovine serum (FBS), 50 U/mL penicillin, and 50 μg/mL streptomycin. Primary astrocyte cultures were prepared from the cerebral cortexes of neonatal mice (P2). The cerebral hemispheres were isolated and transferred to ice-cold Hank’s buffer, and the meninges were carefully removed. Tissues were then minced into approximately 1 mm pieces, triturated, filtered through a 60 µm nylon screen, and collected by centrifugation at approximately 3000× g for 5 min. The cell pellets were dispersed with a pipette and resuspended in a medium containing 10% (vol/vol) FBS in low-glucose Dulbecco’s modified Eagle’s medium. After trituration, the cells were filtered through a 10 µm screen and then plated into 6-well plates at a density of 3 × 10^5 cells/mL and cultured for about 10 days. The medium was replaced twice per week. Dibutyryl cyclic adenosine monophosphate (DBcAMP; 0.15 mM, Sigma, St Louis, MO, USA) was added to induce differentiation when the cells were grown to 95% confluence. […]
Conditioned media were analyzed for the presence of multiple cytokines by using the cytokine multiplex assay kits (Merck Millipore, MA, USA) as previously described. […] The detection beads were then washed again and resuspended in 120 μL of reading buffer. […]

[5] = tested on: STAT3 in primary mouse cortical neurons; assay: STAT3 phosphorylation by direct application of cytokine, primary cortical neurons; type: cell-based; conditions: 0–100 ng/mL, 15 min
Description: (§4) To determine if the experimental cells were readily responsive to LIF and IL-6, SK-N-MC cells, mouse primary neurons and primary astrocytes (80–100% confluence in 12-well plates) were serum-starved for 6 h, followed by treatment of indicated concentrations (0–100 ng/mL) of LIF and IL-6 for 15 min. The subsequent cell lysates were subjected to SDS-PAGE and Western blot with specific antibodies to detect stimulatory phosphorylated forms and the total amounts of STAT3.
as §2, with “control. […] Chemiluminescence signals were then detected by ChemiDoc imaging systems (Bio-Rad, Hercules, CA, USA) with the subsequent band densities quantified by ImageJ (https://imagej.net/ij/) analysis software (National Institutes of Health, MD, USA). […]” for “control.”

STAT3 in U87-MG cells = assay: STAT3 phosphorylation by direct application of cytokine, U87-MG; type: cell-based, human
STAT3 in SK-N-MC cells [6] = assay: STAT3 phosphorylation by direct application of cytokine, SK-N-MC; type: cell-based, human; conditions: LIF 0–100 ng/mL, 15 min
Description: as §4
as §2, with “control. […] Chemiluminescence signals were then detected by ChemiDoc imaging systems (Bio-Rad, Hercules, CA, USA) with the subsequent band densities quantified by ImageJ (https://imagej.net/ij/) analysis software (National Institutes of Health, MD, USA). […]” for “control.”

[7] = tested on: STAT3 in primary mouse astrocytes; assay: STAT3 phosphorylation by direct application of cytokine, primary astrocytes; type: cell-based; conditions: 0–100 ng/mL, 15 min
Description: as §4
SDS-PAGE and Western blotting were performed as described in our previous studies. In brief, cells in 6-well plates (5 × 10^5 cells/well) were lysed in 500 μL of ice-cold lysis buffer (50 mM Tris-HCl at pH 7.5 containing 100 mM NaCl, 5 mM EDTA, 40 mM NaP2O7, 1% Triton X-100, 1 mM dithiothreitol, 200 μM Na3VO4, 100 μM phenylmethylsulfonyl fluoride, 2 μg/mL leupeptin, 4 μg/mL aprotinin, and 0.7 μg/mL pepstatin) and then gently shaken for 30 min. The amount of protein in each sample was determined by detergent compatible (DC) protein assay according to the supplier’s instruction (Bio-Rad, Hercules, CA, USA). Clarified lysates (30 μg protein per sample) were resolved on 12% SDS-polyacrylamide gels and then transferred to nitrocellulose membranes (Westborough, MA, USA). Resolved proteins were detected by specific primary antibodies and horseradish peroxidase-conjugated secondary antisera. The level of β-actin was determined as an internal control. Immunoblots were visualized by chemiluminescence with the WesternBright ECL reagents from Advansta (San Jose, CA, USA). Chemiluminescence signals were then detected by ChemiDoc imaging systems (Bio-Rad, Hercules, CA, USA) with the subsequent band densities quantified by ImageJ (https://imagej.net/ij/) analysis software (National Institutes of Health, MD, USA). All primary antibodies which specifically recognize B1R, B2R, ERK, p-ERK, p38, p-p38, JNK, p-JNK, STAT3, p-STAT3, and β-actin were applied at 1:1000 dilution for Western blotting.

primary astrocytes [8] = assay: Intracellular Ca2+ mobilization by Gq-coupled receptor agonists (FLIPR, Fluo-4), primary cortical astrocytes; type: cell-based, mouse; conditions: 10 μM agonist, n = 4
Description: HEK293, U87-MG, 1321N1, SK-N-SH, and SK-N-MC cells were cultured in MEM supplemented with 10% (vol/vol) fetal bovine serum (FBS), 50 U/mL penicillin, and 50 μg/mL streptomycin. Primary astrocyte cultures were prepared from the cerebral cortexes of neonatal mice (P2). The cerebral hemispheres were isolated and transferred to ice-cold Hank’s buffer, and the meninges were carefully removed. Tissues were then minced into approximately 1 mm pieces, triturated, filtered through a 60 µm nylon screen, and collected by centrifugation at approximately 3000× g for 5 min. The cell pellets were dispersed with a pipette and resuspended in a medium containing 10% (vol/vol) FBS in low-glucose Dulbecco’s modified Eagle’s medium. After trituration, the cells were filtered through a 10 µm screen and then plated into 6-well plates at a density of 3 × 10^5 cells/mL and cultured for about 10 days. The medium was replaced twice per week. Dibutyryl cyclic adenosine monophosphate (DBcAMP; 0.15 mM, Sigma, St Louis, MO, USA) was added to induce differentiation when the cells were grown to 95% confluence. Primary mouse cortical neuronal cultures were obtained from E16 ICR mouse embryos. Briefly, cerebral cortices were removed from mouse embryos and mechanically dissociated in PBS with glucose (18 mM). Neurons were then seeded onto poly-L-lysine (1 mg/mL)-coated 96-well plates at 5 × 10^4 cells/well in a B27 Plus Neuronal culture system (Thermo Fisher Scientific), supplemented with 2 mM glutamine, 5 μM mercaptoethanol, 100 U/mL penicillin and 100 μg/mL streptomycin. The cultured neurons were maintained in a humidified incubator at 37 °C with 5% CO2 for 7 days prior to use.
as §3

NCCc1c[nH]cn1 [histamine]
LIF production (U87-MG cells [1]): significantly elevated the levels of LIF
STAT3 Tyr705 phosphorylation by conditioned media (STAT3 in SK-N-MC cells [2]): stimulated STAT3 Tyr^705 phosphorylation
ERK phosphorylation by conditioned media (ERK in SK-N-SH cells): little or no change in ERK phosphorylation
ERK phosphorylation by conditioned media (ERK in SK-N-MC cells): little or no change in ERK phosphorylation
Ca2+ response, fold stimulation (1321-N1 cells): over 100 fold
intracellular Ca2+ response (1321-N1 cells): significantly stimulated intracellular Ca^2+ responses
Ca2+ response, fold stimulation (U87-MG cells [3]): over 100 fold
intracellular Ca2+ response (U87-MG cells [3]): significantly stimulated intracellular Ca^2+ responses

N=C(N)NCCC[C@H](NC(=O)[C@H](Cc1ccccc1)NC(=O)[C@@H]1CCCN1C(=O)[C@H](CO)NC(=O)[C@H](Cc1ccccc1)NC(=O)CNC(=O)[C@@H]1CCCN1C(=O)[C@@H]1CCCN1C(=O)[C@@H](N)CCCNC(=N)N)C(=O)O [bradykinin] (H-RPPGFSPFR-OH)
EC50 (primary astrocytes [4]): 23 nM

leukemia inhibitory factor [LIF]
STAT3 phosphorylation [5]: dose-dependently stimulated STAT3 phosphorylation
STAT3 response compared with IL-6 [5]: apparently stronger than that induced by IL-6
STAT3 phosphorylation (STAT3 in U87-MG cells): readily stimulated by LIF in a dose-dependent manner
STAT3 phosphorylation (STAT3 in SK-N-MC cells [6]): dose-dependent manner
potency in STAT3 phosphorylation compared with IL-6 [7]: even more potent than IL-6
STAT3 phosphorylation ([7]; n = 3): readily stimulated by LIF in a dose-dependent manner

C[N+](C)(C)CCOC(N)=O [carbachol]
LIF production (U87-MG cells [1]; 10 μM agonist, 24 h, U87-MG, ELISA, n = 3): failed to induce the production of LIF
intracellular Ca2+ mobilization (primary astrocytes [8]): significantly stimulated Ca^2+ mobilization
Ca2+ response, fold stimulation (1321-N1 cells; 10 μM agonist, 1321-N1, FLIPR): over 100 fold
intracellular Ca2+ response (1321-N1 cells; 10 μM agonist, 1321-N1, FLIPR, Fluo-4, 3 min, n = 3): elicited Ca^2+ responses in 1321-N1 cells
intracellular Ca2+ response (U87-MG cells [3]; 10 μM agonist, U87-MG, FLIPR, Fluo-4, 3 min, n = 3): lack of a carbachol-stimulated Ca^2+ response

From publication PMC11642044 (International Journal of Molecular Sciences, 2024)
